Consider one compound from patent publication US7148325B2, “Chimeric retroviral gag genes and screening assays” (priority 2000, dated 2006).

Entries after “also recorded” stand apart in the source; their conditions may differ.

One experiment has as its target T1, Chimera 3a (Human immunodeficiency virus type 1 group M subtype B, UniProt P04591).
T1 construct: made in house; host or cells: cell-free: in vitro transcription/translation (reticulocyte lysate) from plasmid pDABCh3a
Nature of the experiment: In vitro transcription/translation and assembly, sucrose density gradient fractionation and SDS-PAGE, Chimera 3a Gag. Format: biochemical, HIV / M-PMV. To be noted: added with cyclohexamide after 30 minutes of incubation, reaction continued 90 minutes. The method, then:
(§1) FIGS. 3A–E—In vitro transcription and translation reactions using plasmids containing M-PMV, HIV, and Chimera 3a gag genes. After 30 minutes of incubation, cyclohexamide (left panels, FIGS. 3A, 3C, and 3E) or cyclohexamide plus bis-ANS (right panels, FIGS. 3B, 3D, and 3F) were added to the reactions. The reactions were then allowed to continue for an additional 90 minutes. Assembled products were analyzed by sucrose density gradient fractionation and SDS-PAGE. Like M-PMV, but in contrast to HIV, the formation of sedimented material indicative of particle formation by Chimera 3a has been inhibited by the addition of bis-ANS.
(§2) In vitro assembly assays, such as that taught by Sakalian, M., et al. (1996), “Synthesis and assembly of retrovirus Gag precursors into immature capsids in vitro,” J Virol 70, pp. 3706–15, hereby incorporated by reference in its entirety, maybe used to screen for inhibitors of capsid assembly. Briefly, in vitro transcription of chimeric gag -containing plasmids to produce capped RNA transcripts may be performed using the mMESSAGE MMACHINE kit (Ambion, Austin, Tex.), in accordance with the manufacturers instructions. Translation reactions may be performed in the presence of [^35S]methionine in commercially-available rabbit reticulocyte lysates, according to the instructions of the manufacturer (for example, Promega). […]

Another experiment has as its target T2, Chimera 4 (Human immunodeficiency virus type 1 group M subtype B, UniProt P04591).
T2 construct: the megaprimer reaction yielded a product that contained all of HIV Gag fused to M-PMV p12; made in house; host or cells: cell-free: in vitro transcription/translation (reticulocyte lysate) from plasmid pDABCh4
Briefly: In vitro transcription/translation and assembly, sucrose density gradient fractionation and SDS-PAGE, Chimera 4 Gag. Format: biochemical, HIV / M-PMV. To be noted: added with cyclohexamide after 30 minutes of incubation, reaction continued 90 minutes. Here is the method:
(§3) FIGS. 4A–D—In vitro transcription and translation reactions using plasmids containing M-PMV and Chimera 4 gag genes. After 30 minutes of incubation, cyclohexamide (left panels, FIGS. 4A and 4C) or cyclohexamide plus bis-ANS (right panels, FIGS. 4B and 4D) were added to the reactions. The reactions were then allowed to continue for an additional 90 minutes. Assembled products were analyzed by sucrose density gradient fractionation and SDS-PAGE. Like M-PMV, the formation of sedimented material by Chimera 4 has been inhibited by the addition of bis-ANS. Lanes L and P indicate the loading material and re-suspended pellet, respectively.
as §2

For experiment [1], the target named is T3, M-PMV Gag (Mason-Pfizer monkey virus, UniProt P07567).
T3 construct: made in house; host or cells: cell-free: coupled in vitro transcription/translation in rabbit reticulocyte lysate
Briefly: In vitro transcription/translation and assembly, sucrose density gradient fractionation and SDS-PAGE, M-PMV Gag. Format: biochemical. To be noted: added with cyclohexamide after 30 minutes of incubation, reaction continued 90 minutes. Here is the method:
as §1
as §3, with “respectively. […]” for “respectively.”

The target in another experiment is T4, HIV Gag (Human immunodeficiency virus type 1 group M subtype B, UniProt P04591).
T4 construct: made in house; host or cells: cell-free: in vitro transcription/translation (reticulocyte lysate)
Briefly: In vitro transcription/translation, sucrose density gradient fractionation and SDS-PAGE, HIV Gag. In kind it is biochemical. To be noted: added with cyclohexamide after 30 minutes of incubation, reaction continued 90 minutes. The method, then:
as §1, §2

Experiment [2] has as its target T3, M-PMV Gag. Nature of the experiment: In vitro transcription/translation, pelleting through a sucrose cushion (rapid centrifugation assay), M-PMV Gag. Format: biochemical. To be noted: added after 30 minutes, continued 90 minutes; sucrose cushion 35% w/v. The method, then: FIG. 5—In vitro transcription and translation reactions using plasmids containing M-PMV gag genes. After 30 minutes of incubation, anti-p 12 antibody or bis-ANS was added to the reactions. The reactions were then allowed to continue for an additional 90 minutes. Assembled products were analyzed by pelleting through a sucrose cushion (35% w/v). Synthesis reactions were pelleted through a sucrose cushion, and supernatant and pellet were then collected for gel analysis. […] Lanes S and P indicate supernatant and pellet, respectively.

T3 sequence (P07567 whole entry): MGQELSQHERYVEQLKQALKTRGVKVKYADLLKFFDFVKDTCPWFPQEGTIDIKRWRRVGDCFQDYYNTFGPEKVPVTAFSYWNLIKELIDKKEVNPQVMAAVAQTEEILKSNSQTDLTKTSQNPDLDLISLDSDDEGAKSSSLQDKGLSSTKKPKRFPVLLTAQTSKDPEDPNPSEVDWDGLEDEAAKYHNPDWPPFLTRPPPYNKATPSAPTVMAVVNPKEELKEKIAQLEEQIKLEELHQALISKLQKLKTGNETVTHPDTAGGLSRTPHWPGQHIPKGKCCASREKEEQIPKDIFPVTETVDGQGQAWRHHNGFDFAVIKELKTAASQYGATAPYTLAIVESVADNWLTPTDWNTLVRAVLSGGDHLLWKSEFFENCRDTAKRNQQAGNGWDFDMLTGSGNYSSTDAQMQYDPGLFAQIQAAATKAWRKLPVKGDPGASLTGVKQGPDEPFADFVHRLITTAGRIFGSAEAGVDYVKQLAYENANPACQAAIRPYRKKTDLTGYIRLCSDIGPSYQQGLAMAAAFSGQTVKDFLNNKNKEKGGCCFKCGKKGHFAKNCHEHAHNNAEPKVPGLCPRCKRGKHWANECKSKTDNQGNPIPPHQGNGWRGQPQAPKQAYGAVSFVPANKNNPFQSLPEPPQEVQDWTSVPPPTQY

Turning to `O=S(=O)(O)c1cccc2c(-c3ccc(Nc4ccccc4)c4c(S(=O)(=O)O)cccc34)ccc(Nc3ccccc3)c12` [bis-ANS], the “formation of sedimented material indicative of particle formation by Chimera 3a” value on Chimera 3a is “inhibited; also recorded: largely blocked”. Also, at Chimera 4, the “formation of sedimented material by Chimera 4” value is “inhibited; also recorded: largely blocked”. Moreover, at M-PMV Gag [1], the “formation of sedimented material by M-PMV Gag” value was “inhibited”. Moreover, on HIV Gag, the “distribution of HIV Gag in sucrose gradients” value was “no effect”. Moreover, the “formation of pelletable material by M-PMV Gag (immature M-PMV viral capsids)” value on M-PMV Gag [2] is “reduce or prevent; also recorded: significantly reduce”.
